Experimental findings from ChEMBL document CHEMBL5370544, “Design, synthesis, and biological evaluation of 1-styrenyl isoquinoline derivatives for anti-hepatocellular carcinoma activity and effect on mitochondria” (Eur J Med Chem, 2023) are described below.

The structures appear in SMILES notation. Bounds are passed on as bounds.

The test system of one assay is HepG2. The experiment in a line: Antiproliferative activity against human HepG2 cells assessed as inhibition of cell growth measured after 72 hrs by MTT assay. The class given is functional, cell-based. The conditions noted are these: HepG2, 72 h. For orientation: Formazan colour is commonly taken as a measure of viable cells.
Another assay relates to HCCLM9. Briefly: Antiproliferative activity against human HCCLM9 cells assessed as inhibition of cell growth measured after 72 hrs by MTT assay. Type of assay: functional, cell-based. The conditions noted are these: HCCLM9, 72 h.
The test system of a further assay is SK-HEP1. The experiment in a line: Antiproliferative activity against human SK-HEP1 cells assessed as inhibition of cell growth measured after 72 hrs by MTT assay. The class given is functional, cell-based. Conditions: SK-HEP1, 72 h.
For assay [1], the system named is Huh-7. Briefly: Antiproliferative activity against human Huh-7 cells assessed as inhibition of cell growth measured after 72 hrs by MTT assay. Type of assay: functional, cell-based. The conditions noted are these: Huh-7, 72 h.
The subject of assay [2] is Huh-7. Briefly: Antitumor activity against human Huh-7 cells xenografted in BALB/c mouse assessed as tumor growth inhibition at 15 mg/kg, ip qd measured after 14 days. The class given is functional. The conditions noted are these: Huh-7, 336 h, time 14 day, read-out: TGI. In general terms: A xenograft is tissue or cells of one species grown in another, often human tumour cells in immunodeficient mice.

With `CC(=O)Oc1cccc(/C=C/c2nccc3ccccc23)c1`, the IC50 – broadly, the midpoint of a concentration-inhibition curve – in the assay with HepG2 worked out at 14.5 µM; with HCCLM9, 28.6 µM; with SK-HEP1, 14.3 µM; with Huh-7 [1], 11.6 µM.
In the case of `CC(=O)Oc1ccc(/C=C/c2nccc3ccccc23)cc1`, the IC50 in the assay on HepG2 amounted to 20.6 µM; in the assay on HCCLM9, 35.1 µM; in the assay on SK-HEP1 it was 23.4 µM; with Huh-7 [1], 15.4 µM.
In the case of `N#Cc1ccc(/C=C/c2nccc3ccccc23)cc1`, the IC50 was > 40 µM in the assay with HepG2, 30.7 µM with HCCLM9, > 40 µM in the assay with SK-HEP1 and 5.61 µM in the assay with Huh-7 [1].
With `Oc1ccccc1/C=C/c1nccc2ccccc12`, the IC50 was 8.92 µM in the assay with HepG2, 13.6 µM with HCCLM9, 17.1 µM in the assay on SK-HEP1 and 6.07 µM in the assay on Huh-7 [1].
On the same counts, the results for `Nc1cccc(/C=C/c2nccc3ccccc23)c1` are 8.66 µM, 30.9 µM, > 40 µM and 14.1 µM.
Consider `Oc1cccc(/C=C/c2nccc3ccccc23)c1`, for which the IC50 in the assay on HepG2 was 20.4 µM; with HCCLM9 it was > 40 µM; in the assay with SK-HEP1, > 40 µM; with Huh-7 [1], 24.7 µM.
Turning to `C#Cc1ccccc1/C=C/c1nccc2ccccc12`, the IC50 with HepG2 was 31 µM; in the assay with HCCLM9, > 40 µM; in the assay with SK-HEP1, 39.2 µM; in the assay with Huh-7 [1] it was 24.8 µM.
On the same counts, the results for `N#Cc1ccccc1/C=C/c1nccc2ccccc12` are 17.4 µM, 10.8 µM, 11.7 µM and 4.52 µM.
On the same counts, the results for `C#Cc1ccc(/C=C/c2nccc3ccccc23)cc1` are > 40 µM, > 40 µM, > 40 µM and 12.9 µM.
Take `Nc1ccc(/C=C/c2nccc3ccccc23)cc1`: the IC50 is 23.4 µM with HepG2, 16.1 µM in the assay on HCCLM9, > 40 µM in the assay with SK-HEP1 and 17.3 µM with Huh-7 [1].
As to `C(=C\c1nccc2ccccc12)/c1ccc(-c2ccccc2)cc1`, the IC50 with HepG2, in the assay with HCCLM9, in the assay on SK-HEP1 and with Huh-7 [1] was > 40 µM throughout.
For the compound `Oc1ccc(/C=C/c2nccc3ccccc23)cc1`, the IC50 in the assay with HepG2 was > 40 µM; with HCCLM9 it was 29.9 µM; in the assay on SK-HEP1 it was > 40 µM; in the assay with Huh-7 [1] it was 11.9 µM.
`Oc1ccc(/C=C/c2cc(O)cc(O)c2)cc1` [RESVERATROL]: the IC50 in the assay on HepG2, with HCCLM9, in the assay on SK-HEP1 and in the assay with Huh-7 [1] was > 40 µM throughout.
Consider `COc1ccc(/C=C/c2nccc3ccccc23)cc1`, for which the IC50 with HepG2 is 18.1 µM; with HCCLM9 it was > 40 µM; in the assay with SK-HEP1, > 40 µM; with Huh-7 [1] it was 15.8 µM.
For the compound `O=c1[nH]cc(F)c(=O)[nH]1` [FLUOROURACIL], the half-maximal inhibitory concentration (IC50) in the assay on HepG2 is 29.4 µM; with HCCLM9 it was 27.2 µM; in the assay with SK-HEP1, > 40 µM; in the assay on Huh-7 [1] it was 8.98 µM.
Regarding `COc1ccccc1/C=C/c1nccc2ccccc12`, the IC50 in the assay with HepG2 came out at 26.8 µM; in the assay on HCCLM9, 37.6 µM; in the assay on SK-HEP1, 37.6 µM; in the assay with Huh-7 [1], 23.9 µM.
With `N#Cc1cccc(/C=C/c2nccc3ccccc23)c1`, the IC50 was > 40 µM in the assay with HepG2, > 40 µM in the assay with HCCLM9, > 40 µM in the assay on SK-HEP1 and 12.2 µM in the assay on Huh-7 [1].
Take `Nc1ccccc1/C=C/c1nccc2ccccc12`: the IC50 with HepG2 was 25.3 µM; with HCCLM9, > 40 µM; in the assay with SK-HEP1, 26.1 µM; in the assay with Huh-7 [1], > 40 µM.
`CNC(=O)c1cc(Oc2ccc(NC(=O)Nc3ccc(Cl)c(C(F)(F)F)c3)cc2)ccn1` [SORAFENIB]: the IC50 amounted to 9.03 µM in the assay on HepG2, 9.21 µM with HCCLM9, 8.63 µM in the assay with SK-HEP1 and 9.48 µM with Huh-7 [1]. The inhibition in vivo at 15 mg/kg in the assay on Huh-7 [2] is 77%.
As for `COc1cccc(/C=C/c2nccc3ccccc23)c1`, the IC50 in the assay with HepG2 came out at 10.8 µM; in the assay on HCCLM9, 20.4 µM; in the assay on SK-HEP1, 33 µM; in the assay with Huh-7 [1] it was 15.1 µM.
